Test results published in publication PMC9865752, “Design and Synthesis of (Z)-2-(Benzylamino)-5-benzylidenethiazol-4(5H)-one Derivatives as Tyrosinase Inhibitors and Their Anti-Melanogenic and Antioxidant Effects” (Molecules, 2023).
Like-named read-outs stand apart in the source and are kept apart here.

Experiments:
[1] = Peroxynitrite scavenging assay; conditions: 20 µM; SIN-1 as generator; DHR123 probe
Method: The effects of the BABT derivatives on peroxynitrite scavenging activities were also examined using SIN-1 as an RNS generator and dihydrorhodamine (DHR123) as an ROS indicator. DHR123 was converted to fluorescent rhodamine 123 by peroxynitrite generated by SIN-1. Therefore, the peroxynitrite scavenging activities of 1–14 were assessed by measuring the fluorescence of rhodamine 123. BABT derivatives and penicillamine, the positive control, were used at a concentration of 20 µM.
The peroxynitrite scavenging activities of the BABT derivatives were assessed using the method developed by Kooy, involving the monitoring of highly fluorescent rhodamine 123, which was rapidly produced from non-fluorescent DHR123 in the presence of peroxynitrite. Rhodamine buffer (pH 7.4) was composed of 50 mM sodium phosphate dibasic, 50 mM sodium phosphate monobasic, 90 mM sodium chloride, 5 mM potassium chloride, and 100 µM DTPA. A 10 µL aliquot of BABT derivatives or PCA (final concentration: 20 µM) was seeded in a black 96-well plate. Then, 10 µL of SIN-1 (10 µM) was added to induce radical species generation and mixed with 180 µL of rhodamine buffer. Fluorescence intensity was measured at emission and excitation wavelengths of 535 and 485 nm, respectively, using a fluorescence microplate reader (Berthold Technologies GmbH & Co.). PCA was used as the positive control.

[2] = DPPH radical scavenging assay; conditions: test samples 500 µM; DPPH 0.18 mM; 30 min in the dark
Method: DPPH is a light-sensitive compound containing free radicals. The DPPH assay is one of the most common methods for evaluating the antioxidant activity of a compound. The effects of BABT derivatives on DPPH radical scavenging activities were evaluated using L-ascorbic acid as a positive reference control. DPPH radical scavenging activities were measured after leaving the mixed samples (test samples of 500 µM plus DPPH solution of 0.18 mM) in the dark for 30 min. To determine the radical scavenging activities, the absorbance of the mixed samples was measured at 517 nm.
According to previously described methods, with minor modifications, the DPPH radical scavenging activities of BABT derivatives 1–14 were measured. A DPPH (0.2 mM) and methanol solution (180 µL) was mixed with 20 µL of a DMSO solution containing 5 mM BABT derivative, or with 20 µL of an aqueous solution of 5 mM L-ascorbic acid, in each well of a 96-well plate and kept at ambient temperature in the dark for 30 min. The optical density of each well was measured at 517 nm using a microplate reader (VersaMax; Molecular Devices). L-Ascorbic acid was used as a positive reference control, and the DPPH radical scavenging abilities of BABT derivatives were compared with those of L-ascorbic acid. All experiments were performed independently, thrice.

[3] = molecular target: mushroom tyrosinase; test: Mushroom tyrosinase inhibition assay; assay type: biochemical; conditions: for IC50: mean ± SEM of three experiments
Method: As mushroom tyrosinase is commercially available and relatively cheap, it is used as a tool for the identification of novel tyrosinase inhibitors. Here, we examined the tyrosinase inhibitory activities of the 14 BABT derivatives against mushroom tyrosinase in the presence of L-tyrosine or L-dopa as substrates.
Mushroom tyrosinase inhibitory activities of BABT derivatives were determined as described previously, with minor modifications. L-Tyrosine and L-dopa were used as substrates to evaluate the enzyme activity. […] Assay mixtures were incubated at 37 °C for 30 min, and dopachrome amounts synthesized were determined by measuring the optical density of each well at 475 nm using a microplate reader (VersaMax; Molecular Devices, Sunnyvale, CA, USA).

[4] = system: B16F10 cells; test: Measurement of extracellular and intracellular melanin levels; assay type: cell-based, murine; conditions: 20 µM; α-MSH plus IBMX stimulated B16F10 cells; 72 h
Method: To investigate the effects of derivative 8 on extracellular and intracellular melanin levels in B16F10 cells, the cells were treated with various concentrations (5, 10, and 20 µM) of derivative 8 for 1 h, in addition to co-treatment with α-MSH (0.5 µM) and 3-isobutyl-1-methylxanthine (IBMX; 200 µM) to enhance melanin biosynthesis in B16F10 cells. After 72 h of incubation, the effects of 8 on extracellular and intracellular melanin levels were determined by measuring the melanin absorbance in the culture media and cell lysates, respectively, at 405 nm using a microplate reader.
The effect of 8 on melanin production was measured using a standard melanin content assay, with minor modifications. Briefly, B16F10 cells were seeded at a density of 1 × 10^5 cells per well and allowed to adhere to the well bottoms for 24 h under the conditions used for cell cultures. […] After incubation for 72 h at 37 °C in a 5% CO2 atmosphere, melanin levels were determined. To measure the extracellular melanin levels, the absorbance of each well of the culture medium was measured at 405 nm. […] Cultured cells were washed twice with PBS, and the pellets obtained were dissolved using 1 N NaOH solution (200 µL, 10% DMSO) at 60 °C for 1 h. Cell lysates were transferred to the wells of a 96-well plate, and the optical density of melanin dissolved in each well was measured at 405 nm in aqueous DMSO solution using a microplate reader (VersaMax; Molecular Devices).

[5] = SIN-1-induced ROS scavenging assay; conditions: 20 µM; SIN-1 as ROS generator; DCFH-DA probe
Text: The scavenging activities of the BABT derivatives 1–14 against ROS and peroxynitrite (ONOO^−) were investigated because the antioxidant activities of the compounds may modulate melanogenesis. To measure the ROS scavenging activities of BABT derivatives, 2′,7′-dichlorodihydrofluorescein diacetate (DCFH-DA) and 3-morpholinosydnonimine (SIN-1) were used as a fluorogenic probe and ROS generator, respectively. The reaction of DCFH-DA with esterase produces 2′,7′-dichlorodihydrofluorescein (DCFH), which generates the fluorescent compound 2′,7′-dichlorofluorescein (DCF) by reacting with ROS produced by SIN-1. Therefore, ROS scavenging activities were determined by measuring the DCF fluorescence remaining after the BABT derivatives scavenged the ROS generated by SIN-1. […] BABT derivatives and Trolox, the positive control, were used at a concentration of 20 µM.
The ROS scavenging activities of the BABT derivatives were measured using an oxidant-sensitive fluorescent probe. Derivatives or Trolox (10 µL; final concentration: 20 µM) were seeded in a black 96-well plate. Then, 10 µL of SIN-1 (10 µM) was added to induce radical species generation and mixed with 180 µL of sodium phosphate buffer (pH 7.4) containing 12.5 µM DCF-DA and 600 units of esterase. Fluorescence intensity was measured at emission and excitation wavelengths of 535 and 485 nm, respectively, using a fluorescence microplate reader (Berthold Technologies GmbH & Co., Wien, Austria). Trolox was used as the positive control.

[6] = substrate L-dopa, read-out: IC50 (µM) L-Dopa
[7] = substrate L-tyrosine, read-out: IC50 (µM) L-Tyrosine

IC50 [3, 6] [µM]	IC50 [3, 7] [µM]	Structure (SMILES)	ROS scavenging activity (in words) [5]	also measured
–	–	CC(C)(S)[C@@H](N)C(=O)O [penicillamine, reference compound]	–	peroxynitrite scavenging activity (in words) [1]: significantly reduced the peroxynitrite levels increased by SIN-1 treatment
> 300	166 ± 8.04	COc1cc(/C=C2\SC(NCc3ccccc3)=NC2=O)cc(OC)c1O [Compound 12, (Z)-2-(benzylamino)-5-(4-hydroxy-3,5-dimethoxybenzylidene)thiazol-4(5H)-one]	–	DPPH radical scavenging activity, % inhibition [2]: 62%
–	–	O=c1cc(CO)occ1O [kojic acid, Kojic acid, reference compound]	–	extracellular melanin levels compared to untreated control [4]: 1.5 fold; intracellular melanin levels compared to untreated control [4]: 1.9 fold
248 ± 11.5	199 ± 8.57	CCOc1cc(/C=C2\SC(NCc3ccccc3)=NC2=O)ccc1O [Compound 6, (Z)-2-(benzylamino)-5-(3-ethoxy-4-hydroxybenzylidene)thiazol-4(5H)-one]	–	–
> 300	148.3 ± 1.12	COc1cc(/C=C2\SC(NCc3ccccc3)=NC2=O)ccc1O [Compound 5, (Z)-2-(benzylamino)-5-(4-hydroxy-3-methoxybenzylidene)thiazol-4(5H)-one]	moderate ROS scavenging activities	–
> 300	> 300	O=C1N=C(NCc2ccccc2)S/C1=C\c1ccc(F)cc1F [Compound 3, (Z)-2-(benzylamino)-5-(2,4-difluorobenzylidene)thiazol-4(5H)-one]	moderate ROS scavenging activities	–
> 300	137 ± 10.7	CC(C)(C)c1cc(/C=C2\SC(NCc3ccccc3)=NC2=O)cc(C(C)(C)C)c1O [Compound 13, (Z)-2-(benzylamino)-5-(3,5-di-tert-butyl-4-hydroxybenzylidene)thiazol-4(5H)-one]	–	–
–	–	O=C1O[C@H]([C@@H](O)CO)C(O)=C1O [L-Ascorbic acid, L-ascorbic acid, reference compound]	–	DPPH radical scavenging activity, % inhibition [2]: 97%
> 300	289 ± 14.7	O=C1N=C(NCc2ccccc2)S/C1=C\c1ccc(F)c(F)c1 [Compound 4, (Z)-2-(benzylamino)-5-(3,4-difluorobenzylidene)thiazol-4(5H)-one]	moderate ROS scavenging activities	–
231 ± 7.43	192 ± 9.04	COc1cc(/C=C2\SC(NCc3ccccc3)=NC2=O)cc(OC)c1OC [Compound 14, (Z)-2-(benzylamino)-5-(3,4,5-trimethoxybenzylidene)thiazol-4(5H)-one]	–	mushroom tyrosinase inhibitory activity (in words) ([3]; substrate L-tyrosine): little-to-no mushroom tyrosinase inhibitory activity
214 ± 6.29	293 ± 13.1	COc1ccc(/C=C2\SC(NCc3ccccc3)=NC2=O)c(OC)c1 [Compound 10, (Z)-2-(benzylamino)-5-(2,4-dimethoxybenzylidene)thiazol-4(5H)-one]	–	mushroom tyrosinase inhibitory activity (in words) ([3]; substrate L-tyrosine): little-to-no mushroom tyrosinase inhibitory activity
> 300	> 300	COc1ccc(/C=C2\SC(NCc3ccccc3)=NC2=O)cc1OC [Compound 11, (Z)-2-(benzylamino)-5-(3,4-dimethoxybenzylidene)thiazol-4(5H)-one]	–	mushroom tyrosinase inhibitory activity (in words) ([3]; substrate L-tyrosine): little-to-no mushroom tyrosinase inhibitory activity
239.4 ± 2.38	126 ± 10	COc1ccc(/C=C2\SC(NCc3ccccc3)=NC2=O)cc1 [Compound 2, (Z)-2-(benzylamino)-5-(4-methoxybenzylidene)thiazol-4(5H)-one]	strongly reduced the ROS levels enhanced by SIN-1	fold decrease of tyrosinase inhibitory activity versus derivative 1 ([3]; substrate L-dopa): 3.7 fold; fold lower tyrosinase inhibitory activity than derivative 1 ([3]; substrate L-tyrosine): 4.6 fold
65.1 ± 8.29	27.5 ± 2.93	O=C1N=C(NCc2ccccc2)S/C1=C\c1ccc(O)cc1 [Compound 1, (Z)-2-(benzylamino)-5-(4-hydroxybenzylidene)thiazol-4(5H)-one]	strongly reduced the ROS levels enhanced by SIN-1	fold higher IC50 value with L-dopa than with L-tyrosine ([3]; L-dopa versus L-tyrosine as substrate): 2 fold; peroxynitrite scavenging activity (in words) [1]: strong ROS and peroxynitrite scavenging activities
